Laboratory results as given in patent publication US20240131204A1, “Fractionated Dosing of a Phospholipid Ether Analog for the Treatment of Cancer” (Cellectar Biosciences, Inc., priority 2019, published 2024).

Key:
[1] = test system: OPM-2 cell line (human multiple myeloma); test: OPM-2 multiple myeloma subcutaneous xenograft in CB17 SCID mice (tumor volume, doubling time, survival, body weight); type: in vivo; settings: for tolerability: repeated/fractionated dosing versus the single equal dose
Description: The OPM-2 cell line (human multiple myeloma) was purchased from American Type Culture Collection (ATCC, Rockville, MD) and maintained in McCoy's 5a media supplemented with 10% fetal bovine serum. Female CB17 SCID mice approximately 5-7 weeks of age were injected subcutaneously with 1×10^7 viable cells (in ˜100 μL Dulbecco's PBS) into the right flank. The study was initiated when tumor size had reached a pre-determined size (approximately 150-200 mm3). The mice were given potassium iodide at a concentration of 0.1% in their drinking water to block possible free iodide in the drug formulation three days prior to injection and continuing through two weeks post-injection. Mice were randomly assigned to dose groups. Tumor volume was measured with a caliper during the course of the study. Tumor doubling time calculation TDT=D×log(2)/log(1+r/100), where D equals days between measurements and r=rate of growth; r/100=(V2−V1/V1)×100%. Statistical analysis: 1-way Anova, Dunnett's test.

[2] = Clinical trial: single bolus dose (Cohort 4) versus fractionated dose (Cohort 5); type: in vivo, human
Description: Dosing is based upon body surface area or BSA in millicuries/meter squared (mCi/m^2). Patients either received a single 30 minute infusion of 31.25 mCi/m^2 on day 1 or a 30 minute fractionated infusion dose of 15.625 mCi/m^2 on day 1 and then repeated on day 8.

[3] = test system: xenograft, orthotopic and transgenic cancer and cancer stem cell derived animal models; settings: radioiodinated CLR1404; cited from earlier work
[4] = test system: xenograft, orthotopic and transgenic cancer and cancer stem cell derived animal models; test: Tumor selectivity, uptake and retention in animal tumor models; type: in vivo; settings: variety of tumor models

With “^131I-labeled 18-(p-iodo-phenyl)octadecyl phosphocholine [CLR 131]” the antitumor activity ([1]; all doses, model of multiple myeloma) was “marked antitumor activity”, the survival ([1]; fractionated dosing) was “statistically significant survival benefit” and the tumor doubling time ([1]; fractionated dosing versus all other treatments) was “markedly increased”. The “reduction in tumor volume vs control” value ([1]; fractionated dosing, after day 26) was “statistically significant reduction”, the “reduction in tumor volume vs all other treatments” value ([1]; fractionated dosing, day 52, p<0.05) was “statistically significant reduction” and the tolerability [1] was “well tolerated and better tolerated than the single equal dose”. The “average reduction in surrogate markers of efficacy” value ([2]; fractionated dose (Cohort 5)) was 40%, the “average progression free survival” value ([2]; fractionated dose (Cohort 5), assessment ongoing) was 2.9 months and the median overall survival ([2]; fractionated dose, 15.625 mCi/m^2 on day 1 and day 8 (Cohort 5), assessment still ongoing) was 7.4 months. For the same molecule, the “average progression free survival” value ([2]; single bolus dose (Cohort 4)) was 2.8 months, the “average reduction in surrogate markers of efficacy” value ([2]; single bolus dose (Cohort 4)) was 29% and the median overall survival ([2]; single bolus dose, 31.25 mCi/m^2 on day 1 (Cohort 4)) was 6.5 months.
For `C[N+](C)(C)CCOP(=O)([O-])OCCCCCCCCCCCCCCCCCCc1ccc(I)cc1` [CLR1404], the tolerability [1] is given as “well tolerated and is better tolerated than a single equal dose”, the “tumor selectivity (models showing it / models tested)” value [3] is given as 55/60 and the “sequestration and retention by cancer cells and cancer stem cells” value [4] is given as “sequestered and selectively retained”.
